Measurements as given in patent EP1746087A1, “Derivates of 3-indolylmethylene having cytostatic properties” (Universitaet Regensburg, priority 2005, dated 2007).
pIC50: −log10 of the molar value. “And” between values parts separate entries of the source, which are not always exact repeats. Identical values can stand only once. Like-named read-outs stand apart in the source and are kept apart here.

Legend:
Type in all cases: cell-based, menschlich
[1] = test system: MCF-7-Mammacarcinomzellen; assay: Growth inhibition of MCF-7 mammary carcinoma cells in vitro (cytostatic effect); settings: MCF-7 cells, read-out: IC50 Hemmwirkung auf das Wachstum
Source text: (§1) Die cytostatische Wirkung der erfindungsgemäßen Verbindungen wurde an zwei verschiedenen menschlichen Mammacarcinomzellinien in vitro bestimmt (M. Goldbrunner et al., J.Med.Chem. 1997,40,3525). Es handelt sich dabei um die hormonunabhängige MDA-MB-231-Zellinie und die estrogensensitive MCF-7-Linie. Die MDA-MB-231-Zellen wurden auch für die durchflusszytometrischen Analysen zur Zellzyklusverteilung herangezogen (M.J.J. Jaroszeski und R. Heller, Flow Cytometry Protocols, Humana Press, 1998, Totowa New Jersey). Besonders überraschend war, dass diese synthetischen Verbindungen häufig bereits im Konzentrationsbereich von 10 bis 100 nanomolar das Wachstum von menschlichen Tumorzellen stark hemmen, obwohl sie nur ein relativ niedriges Molekulargewicht aufweisen (MG ~ 320 - 500) (Tabelle 2 und 3, Abb. 2). Potente Therapeutika, die ebenfalls in den Zellzyklus eingreifen, besitzen Molekulargewichte im Bereich von 825 (Vincristin als Base) und 850 (Paclitaxel).

[2] = test system: MDA-MB-231-Brustkrebszellen; assay: Growth inhibition of MDA-MB-231 breast cancer cells in vitro (cytostatic effect); settings: MDA-MB-231 cells, read-out: IC50 Hemmwirkung auf das Wachstum
Source text: as §1

[3] = test system: MDA-MB-231-Mammacarcinomzellen; assay: Flow-cytometric analysis of cell cycle distribution
Source text: as §1

## COc1ccc(-c2[nH]c3cc(C(C)C)ccc3c2C=C(C#N)C#N)cc1 [Verbindung 6, [6-Isopropyl-2-(4-methoxyphenyl)-indol-3-yl]methylenpropandinitril]
[1]; Homo sapiens, MCF7
  pIC50: 6.51
[2]; Homo sapiens
  pIC50: 6.68

## CCCc1ccc2[nH]c(-c3ccc(OC)cc3)c(C=C(C#N)C#N)c2c1 [Verbindung 5, [2-(4-Methoxyphenyl)-5-n-propyl-indol-3-yl]-methylenpropandinitril]
[2]; Homo sapiens
  pIC50: 7.08

## CCCCc1ccc2[nH]c(-c3ccc(OC)cc3)c(C=NNC(=O)c3ccc(Cl)cc3)c2c1 [Verbindung 23, 5-n-Butyl-2-(4-methoxyphenyl)-indol-3-carbaldehyd-(4-chlorbenzoyl)hydrazon]
[2]
  pIC50: 7.05

## COc1ccc(-c2[nH]c3cc(OC)ccc3c2C=C(C#N)C#N)cc1 [Verbindung 10, [6-Methoxy-2-(4-methoxyphenyl)-indol-3-yl]methylenpropandinitril]
[2]; Homo sapiens
  pIC50: 6.59

## CCCCc1ccc2[nH]c(-c3ccc(OC)cc3)c(C=C(C#N)C(=O)O)c2c1 [Verbindung 18, 3-[5-n-Butyl-2-(4-methoxyphenyl-)indol-3-yl]-2-cyanoacrylsäure]
[2]
  pIC50: 6.70

## CCCCc1ccc2[nH]c(-c3ccc(CC)cc3)c(C=NNCc3cccnc3)c2c1 [Verbindung 26, 5-Butyl-2-(4-ethylphenyl)-indol-3-carbaldehyd-nicotinylhydrazon]
[3]; Konz. 0.01 µM
  Debris %: 3.2%
  G1/G0 %: 51.0%
  G2/M %: 26.3%
  S %: 20.2%
[3]; Konz. 0.05 µM
  Debris %: 2.8%
  G1/G0 %: 51.3%
  G2/M %: 22.9%
  S %: 23.7%
[3]; Konz. 0.1 µM
  Debris %: 3.4%
  G1/G0 %: 49.2%
  G2/M %: 25.5%
  S %: 23.0%
[3]; Konz. 0.5 µM
  Debris %: 12.2%
  G1/G0 %: 9.6%
  G2/M %: 66.9%
  S %: 11.4%
[2]; Homo sapiens
  pIC50: 7.28

## CC[C@]1(O)C[C@H]2CN(CCc3c([nH]c4ccccc34)[C@@](C(=O)OC)(c3cc4c(cc3OC)N(C=O)[C@H]3[C@@](O)(C(=O)OC)[C@H](OC(C)=O)[C@]5(CC)C=CCN6CC[C@]43[C@@H]65)C2)C1 [Vincr., Vincristin, reference compound]
[3]; Konz. 0.1 µM
  G1/G0 %: 6.2% and 4.5% and 5.1% and 9.3% and 10.2% and 11.4% and 8.1%
  G2/M %: 67.0% and 76.0% and 60.7% and 53.8% and 61.0% and 48.4% and 54.1%

## CCCCCCc1ccc2[nH]c(-c3ccc(OC)cc3)c(C=C(C#N)C#N)c2c1 [Verbindung 9, [5-n-Hexyl-2-(4-methoxyphenyl)-indol-3-yl]-methylenpropandinitril]
[3]; Konz. 0.1 µM
  Debris %: 6.1%
  G1/G0 %: 46.2%
  G2/M %: 22.4%
  S %: 25.3%
[3]; Konz. 0.5 µM
  Debris %: 22.6%
  G1/G0 %: 7.4%
  G2/M %: 53.9%
  S %: 16.1%
[3]; Konz. 1.0 µM
  Debris %: 15.9%
  G1/G0 %: 7.1%
  G2/M %: 57.3%
  S %: 19.7%
[1]; Homo sapiens, MCF7
  pIC50: 7.60
[2]; Homo sapiens
  pIC50: 7.34

## CCCCc1ccc2[nH]c(-c3ccc(C)cc3)c(C=C(C#N)C#N)c2c1 [Verbindung 14, [5-Butyl-2-(4-methylphenyl)-indol-3-yl]-methylenpropandinitril]
[3]; Konz. 0.05 µM
  Debris %: 2.5%
  G1/G0 %: 52.7%
  G2/M %: 22.4%
  S %: 24.0%
[3]; Konz. 0.1 µM
  Debris %: 3.3%
  G1/G0 %: 50.6%
  G2/M %: 21.9%
  S %: 24.6%
[3]; Konz. 0.5 µM
  Debris %: 24.5%
  G1/G0 %: 16.7%
  G2/M %: 41.5%
  S %: 15.6%
[3]; Konz. 1.0 µM
  Debris %: 19.1%
  G1/G0 %: 6.1%
  G2/M %: 64.2%
  S %: 10.3%
[2]; Homo sapiens
  pIC50: 7.19

## COc1ccc2c(C=C(C#N)C#N)c(-c3ccc(C)cc3)[nH]c2c1 [Verbindung 3, [6-Methoxy-2-(4-methylphenyl)-indol-3-yl]-methylenpropandinitril]
[1]; Homo sapiens, MCF7
  pIC50: 6.60
[2]; Homo sapiens
  pIC50: 6.74

## CCCCc1ccc2[nH]c(-c3ccc(CC)cc3)c(C=C(C#N)C#N)c2c1 [Verbindung 15, [5-Butyl-2-(4-ethylphenyl)-indol-3-yl]-methylenpropandinitril]
[3]; Konz. 0.01 µM
  Debris %: 5.0%
  G1/G0 %: 53.6%
  G2/M %: 21.8%
  S %: 20.0%
[3]; Konz. 0.05 µM
  Debris %: 6.6%
  G1/G0 %: 50.3%
  G2/M %: 19.8%
  S %: 24.2%
[3]; Konz. 0.1 µM
  Debris %: 8.6%
  G1/G0 %: 51.8%
  G2/M %: 18.9%
  S %: 20.7%
[3]; Konz. 0.5 µM
  Debris %: 23.2%
  G1/G0 %: 5.7%
  G2/M %: 62.8%
  S %: 6.3%
[2]; Homo sapiens
  pIC50: 7.10

## COc1ccc(-c2[nH]c3ccccc3c2C=C(C#N)C#N)cc1 [Verbindung 11, [2-(4-Methoxyphenyl)-indol-3-yl]-methylenpropandinitril]
[2]; Homo sapiens
  pIC50: 6.14

## COc1ccc(-c2[nH]c3cc(Cl)c(C)cc3c2C=C(C#N)C#N)cc1 [Verbindung 2, [6-Chlor-2-(4-methoxyphenyl)-5-methyl-indol-3-yl]-methylenpropandinitril]
[1]
  pIC50: 6.70
[2]
  pIC50: 7.12

## CCCCc1ccc2[nH]c(-c3ccc(OC)cc3)c(C=NNC(=O)c3ccccc3)c2c1 [Verbindung 22, 5-n-Butyl-2-(4-methoxyphenyl)-indol-3-carbaldehyd-benzoylhydrazon]
[1]; Homo sapiens, MCF7
  pIC50: 6.89
[2]; Homo sapiens
  pIC50: 7.49

## CCCCCc1ccc2[nH]c(-c3ccc(C(F)(F)F)cc3)c(C=C(C#N)C#N)c2c1 [Verbindung 16, {5-Pentyl-2-[4-(trifluormethyl)-phenyl]-indol-3-yl}-methylenepropandinitril]
[2]
  pIC50: 7.11

## COc1cccc(-c2[nH]c3ccc(OC)cc3c2C=C(C#N)C#N)c1 [Verbindung 12, [5-Methoxy-2-(3-methoxyphenyl)-indol-3-yl]-methylenpropandinitril]
[2]; Homo sapiens
  pIC50: 6.01

## COc1ccc(-c2[nH]c3ccc(F)cc3c2C=C(C#N)C#N)cc1 [Verbindung 4, [5-Fluor-2-(4-methoxyphenyl)-indol-3-yl]methylenpropandinitril]
[2]
  pIC50: 6.40

## CCCCc1ccc2[nH]c(-c3ccc(OC)cc3)c(C=C(C#N)C#N)c2c1 [Verbindung 7, [5-n-Butyl-2-(4-methoxyphenyl)-indol-3-yl]-methylenpropandinitril]
[1]; Homo sapiens, MCF7
  pIC50: 7.89
[2]; Homo sapiens
  pIC50: 7.89

## COc1ccc(-c2[nH]c3cc(OC)ccc3c2C=NNc2ccccc2)cc1 [Verbindung 21, 6-Methoxy-2-(4-methoxyphenyl)-indol-3-carbaldehyd-phenylhydrazon]
[2]; Homo sapiens
  pIC50: 6.00

## CCCCc1ccc2[nH]c(-c3ccc(C(F)(F)F)cc3)c(C=NNC(N)=O)c2c1 [Verbindung 30, 5-Butyl-2-[4-(trifluormethyl)-phenyl]-indol-3-carbaldehyd-semicarbazon]
[2]
  pIC50: 6.07

## CCCCCCc1ccc2[nH]c(-c3ccc(C(F)(F)F)cc3)c(C=C(C#N)C#N)c2c1 [Verbindung 17, {5-Hexyl-2-[4-(trifluormethyl)phenyl]-indol-3yl}-methylenpropandinitril]
[2]
  pIC50: 6.82

## CCCCc1ccc2[nH]c(-c3ccc(OC)cc3)c(C=NN3C(=O)c4ccccc4C3=O)c2c1 [Verbindung 29, N-{[5-n-Butyl-2(4-methoxyphenyl)-indol-3-yl]methylenamino}-phthalimid]
[2]; Homo sapiens
  pIC50: 7.52

## CCCCc1ccc2[nH]c(-c3ccc(C(F)(F)F)cc3)c(C=NNC(=O)c3ccccn3)c2c1 [Verbindung 27, 5-n-Butyl-2-[4-(trifluormethyl)-phenyl]-indol-3-carbaldehyd-picolinylhydrazon]
[2]
  pIC50: 6.59

## CCCCc1ccc2[nH]c(-c3ccc(C(F)(F)F)cc3)c(C=C(C#N)C#N)c2c1 [Verbindung 13, {5-Butyl-2-[4-(trifluormethyl)-phenyl]-indol-3-yl}methylenpropandinitril]
[3]; Konz. 0.01 µM
  Debris %: 2.9%
  G1/G0 %: 52.7%
  G2/M %: 22.1%
  S %: 22.9%
[3]; Konz. 0.05 µM
  Debris %: 3.0%
  G1/G0 %: 52.3%
  G2/M %: 22.1%
  S %: 22.6%
[3]; Konz. 0.1 µM
  Debris %: 13.3%
  G1/G0 %: 52.6%
  G2/M %: 12.2%
  S %: 22.3%
[3]; Konz. 0.5 µM
  Debris %: 5.5%
  G1/G0 %: 5.4%
  G2/M %: 76.3%
  S %: 9.2%
[2]
  pIC50: 7.25

## CCCCc1ccc2[nH]c(-c3ccc(C(F)(F)F)cc3)c(C=NNC(=O)c3ccncc3)c2c1 [Verbindung 28, 5-Butyl-2-[4-(trifluormethyl)-phenyl]-indol-3-carbaldehyd-isonicotinylhydrazon]
[3]; Konz. 0.05 µM
  Debris %: 3.5%
  G1/G0 %: 49.6%
  G2/M %: 24.2%
  S %: 25.6%
[3]; Konz. 0.1 µM
  Debris %: 3.8%
  G1/G0 %: 49.3%
  G2/M %: 24.0%
  S %: 23.7%
[3]; Konz. 0.5 µM
  Debris %: 16.7%
  G1/G0 %: 16.9%
  G2/M %: 50.2%
  S %: 15.0%
[2]
  pIC50: 7.03

## CCCCCc1ccc2[nH]c(-c3ccc(OC)cc3)c(C=C(C#N)C#N)c2c1 [Verbindung 8, [2-(4-Methoxyphenyl)-5-n-pentyl-indol-3-yl]-methylenpropandinitril]
[1]; Homo sapiens, MCF7
  pIC50: 7.12
[2]; Homo sapiens
  pIC50: 7.38
